Laboratory results: patent publication EP1488698A1, “Compositions for descreasing intracellular inositol trisphosphate concentration and uses thereof” (priority 1995, dated 1997)
“Also recorded” adds a separate entry of the source. Where two headings read alike, the source gives them in different places.

Legend:
[1] = system: primary chick cortical neurons; experiment: Phosphoinositide hydrolysis assay (InsP3 production) in cultured primary cortical neurons; assay type: cell-based; details: Gallus gallus, Cortical neurone, 20 min, read-out: Ins-P-n
Protocol: The neurons were seeded in 24-well plastic tissue culture plates that had been coated with L-polylysine.
Receptor-stimulated and basal unstimulated hydrolysis of phosphoinositides was measured by the following procedure. […] The cells were then washed twice with 1 ml Dulbecco's phosphate-buffered saline (PBS) and 0.5 ml of PBS containing 4.5 g/L glucose was added. Sphingosine, psychosine, lysosulphatide, or lysosphingomyelin, prepared as the hydrochloride salt dissolved in water, were then added to produce the desired extracellular concentration in specific wells, […] The cells were then washed twice with 1 ml PBS, and pre-incubated for 15 minutes at 37°C with 0.5 ml PBS containing 10 mM LiCl and the compound to be tested was added. […] The tubes were vortexed thoroughly, then centrifuged at 500 x g for 5 minutes to separate the aqueous and chloroform phases. For each sample, a 1.5-ml aliquot of the upper (aqueous) phase was applied to a small column containing BioRad AG1X8 resin (formate form). Free [^3H]inositol and [^3H]glycerophosphoinositol were washed through the column with 5 ml of a solution containing 5 mM sodium borate and 60 mM sodium formate. The total phosphorylated [^3H] inositol fraction was eluted from the column for radiometric scintillation spectrometry analysis with 3 ml 1.0 M ammonium formate/0.1 M formic acid.
In addition, a 0.5 ml aliquot of the lower (chloroform) phase of each sample was analyzed radiometrically by scintillation spectrometry in order to determine the quantity of lipid-bound [^3H]myo-inositol. Estimation of phosphoinositide hydrolysis by phospholipase C is based upon the quantity of [^3H]inositol phosphates produced, and is expressed as the percentage of the latter relative to total free and componential [^3H]inositol (dpm ammonium formate + dpm chloroform fractions).

[2] = system: hippocampal neurons; experiment: Histological analysis of brain (cresyl violet) seven days after ICV infusion; assay type: in vivo, rats
Protocol: (§1) The animals used in this experiment were male F344 rats (Charles River Breeding Laboratories). The animals were housed individually, exposed to a 12-hour light-dark cycle, and allowed free access to food and water. The animals weighed approximately 250 g at the beginning of each experiment and were weighed daily. In addition, the animals were habituated to handling before each experiment.
(§2) Before administering various compounds, the animals were anesthetized with sodium pentobarbital (50 mg/kg, i.p.) and positioned in a sterotaxic instrument. A 26 gauge cannula was inserted into the cerebral ventricle at the following co-ordinates: 1.0 mm posterior to bregma, 1.5 mm lateral to the midline, and 4.0 mm below the dorsal surface of the neocortex. Cannulas were capped and fixed in place with dental cement. One week after cannulation, 10 µl of each of the treatment drugs was infused, ICV (i.e. into the ventricals of the brain), via a micropump at a rate of 10 µl/min. For this procedure, the animals were lightly restrained and unanesthetized. Following administration of the compound, the infusion cannula remained in position for one minute, after which the permanent in situ cannula was capped.
(§3) The compounds administered were obtained from a commercial supplier (Sigma Chemical Co., St. Louis, MO) and dissolved in saline prior to injection. These compounds included quisqualate (injected at doses ranging from 100 nmole/10 µl to 1 µmole/10 µl), lysocerebroside, and lysophingomyelin (which were injected at doses of 25 nmoles/10 µl to 150 nmoles/10 µl).
Seven days after the compounds were administered, animals were sacrificed by transcardial perfusion with neutralized, buffered 10% formalin-saline. Their brains were removed, post-fixed overnight in 10% formalin-saline, and sectioned along the coronal plane (into 50 µm thick sections) on a freezing microtome. The sections were stained with cresyl violet to determine the extent of cellular destruction. […]
Given that high concentrations of metabotropic receptors are located in the hippocampus, and that the hippocampus is particularly vulnerable to the effects of a variety of insults including ischemia and hypoxia, this region was examined for evidence of neuronal degeneration due to glutamate excitoxicity.

[3] = Behavioral analysis after ICV infusion (quisqualate excitotoxicity model); assay type: in vivo, rats; details: rat, in vivo, icv or intrathecal, rats
Protocol: as §1, §2, §3
(§4) Pilot studies identified several specific behavioral measures that could be used to indicate excessive activation of the metabotropic receptor (see Table 3). […] The experiments that follow were based on an analysis of these behaviors over a two hour period after administration of the compounds of the invention. Behavioral observation was carried out by two trained observers, who worked independently of one another and who were blind to the experimental groups. […] Frequency and duration means were computed by subtracting pre-infusion means from post-infusion means.
(§5) The experiment began one week after ICV cannulation. […] Following the baseline observation period, animals received the first of two ICV infusions (all infusions were of a 10 µl volume that was administered over a 1 minute period). For the first five groups listed above, this consisted of saline (10 µl/minute), for the following 3 groups the infusions were psychosine at 125 nmoles, lysosphingomyelin at 125 nmoles, or lysosphingomyelin at 150 nmoles, respectively. Thirty minutes later, all animals received the second infusion which, for the first five groups listed above, consisted of saline, quisqualate at 225 nmoles, psychosine at 125 nmoles, lysosphingomyelin at 125 nmoles, and lysosphingomyelin at 150 nmoles respectively. […] Following the second infusion animals were returned to their cages, and observed continuously over the subsequent 2 hours.

[4] = system: male F344 rats; experiment: as above; assay type: in vivo
Protocol: as §1, §2, §3, §4, §5

[5] = system: hippocampal neurons; experiment: Histological analysis of brain (cresyl violet) seven days after ICV infusion; assay type: in vivo; details: Quisqualate 500 µmoles ICV, rats

For `N[C@@H](Cn1oc(=O)[nH]c1=O)C(=O)O` [Quisqualate, quisqualate], the fold induction at 100 µM [1] was 3 ± 0.05, the “HISTOLOGICAL CHANGES” value ([2]; Quisqualate 100 nmoles ICV, rats) was “none observed” and the “HISTOLOGICAL CHANGES” value ([2]; Quisqualate 150 nmoles ICV, rats) was “none observed”. The “HISTOLOGICAL CHANGES” value ([2]; Quisqualate 225 nmoles ICV, rats, seven days after) was “loss of CA1 pyramidal neurons in the hippocampus”, the “HISTOLOGICAL CHANGES” value ([2]; Quisqualate 225 nmoles ICV, rats, seven days after, listed as quisqualate) was “severe loss of neurons in the hippocampus; also recorded: a considerable loss of CA1 pyramidal neurons in the hippocampus” and the “HISTOLOGICAL CHANGES” value ([2]; Quisqualate 250 nmoles ICV, 'as above' = loss of neurons in the piriform and entorhinal cortex, CA1 and dentate gyrus regions of the hippocampus, listed as quisqualate) was “severe loss of neurons in the hippocampus”. The mortality ([3]; 225 nmol, Quisqualate 225 nmoles ICV, read-out: death, cases) was 60%, the mortality ([3]; 250 nmol, Quisqualate 250 nmoles ICV, read-out: death, cases) was 75% and the mortality ([3]; Quisqualate 1 µmoles ICV, read-out: dead, cases) was 100%. The “effective dose (to produce behavioral and histological changes)” value ([4]; ICV, rats, pilot testing) was 225 nmoles, the BEHAVIOR ([4]; Quisqualate 100 nmoles ICV, rats, reflex score 0 normal, 3 severely abnormal) was “-teeth chatter; also recorded: -mild scratching; also recorded: -hind leg weakness 60 minutes; also recorded: -normal placement and clasp reflex (0)” and the BEHAVIOR ([4]; Quisqualate 150 nmoles ICV, rats, reflex score 0 normal, 3 severely abnormal) was “-teeth chatter; also recorded: -localized twitches; also recorded: -mild hyperactivity walking in circles; also recorded: -hind leg weakness for 60 minutes; also recorded: -normal placement and clasp reflex (0)”. For the same molecule, the BEHAVIOR ([4]; Quisqualate 150 nmoles ICV, rats, reflex score 0 normal, 3 severely abnormal, listed as quisqualate) was “an increase in activity and teeth chattering”, the BEHAVIOR ([4]; Quisqualate 200 nmoles ICV, rats, reflex score 0 normal, 3 severely abnormal) was “-teeth chatter; also recorded: -occasional mild convulsions; also recorded: -hyperactivity - circle walking; also recorded: -episodic akinesia/tonic immobility; also recorded: -hind leg weakness; also recorded: -normal limb clasp and placement reflex (0)” and the “death, cases” value ([4]; Quisqualate 225 nmoles ICV, rats) was “-death in 60% of cases”. The BEHAVIOR ([4]; Quisqualate 225 nmoles ICV, rats, reflex score 0 normal, 3 severely abnormal) was “moderate convulsions”, the BEHAVIOR ([4]; Quisqualate 250 nmoles ICV, rats, reflex score 0 normal, 3 severely abnormal) was “-localized spasms jerking/twitching; also recorded: -full body convulsions-severe/repeated; also recorded: -foaming at mouth; also recorded: -respiratory distress; also recorded: -abnormal placement and clasp reflex (3); also recorded: -vocalization; also recorded: -teeth chattering; also recorded: -scratching” and the BEHAVIOR ([4]; Quisqualate 250 nmoles ICV, rats, reflex score 0 normal, 3 severely abnormal, listed as quisqualate) was “severe convulsions and death”. For the same molecule, the BEHAVIOR ([4]; Quisqualate 1 µmoles ICV, rats) was “-severe repeated full body convulsions; also recorded: -severe scratching; also recorded: -severe teeth chattering; also recorded: -foaming at mouth”, the time to death ([4]; Quisqualate 1 µmoles ICV, rats) was 5 to 15 min and the BEHAVIOR ([4]; Quisqualate 500 µmoles ICV, rats) was “vocalization”. The “duration of teeth chattering, akinesia and mobilization” value ([4]; quisqualate alone 225 nmoles vs lysosphingolipids alone and vs quisqualate 225 nmoles + lysophingomyelin 150 nmoles, Fig. 9) was “significantly (p< .01) more time engaged in these behaviors”, the number of convulsions/spasms ([4]; quisqualate alone at 225 nmoles ICV compared to all other groups, 2 hours observation, Fig. 8) was “significantly (p.<01) more convulsions/spasms” and the “HISTOLOGICAL CHANGES” value [5] was “loss of neurons in the piriform and entorhinal cortex. CA1 and dentate gyrus regions of the hippocampus”.
